Earlier results on one substance are cited in US7166608B2, “N-aroyl piperazine derivatives as orexin receptor antagonists” (SmithKline Beecham p.l.c., priority 2001, dated 2007).

The subject of one data set is freely-feeding rats. To be noted: central administration, 4 hour time period.
Another data set concerns rat sleep/EEG. As to conditions: central administration at the onset of the normal sleep period.

Turning to “orexin-A: peptide ligand (agonist) of the orexin receptors; human sequence given in the 1st table (EPLPDCCRQKTCSCRLYELLHGAGNHAAGILTLNH; Human orexin A)”, the “increase in food intake over control rats receiving vehicle” value in the data set with freely-feeding rats is “approximately four-fold”. The “effect on arousal and sleep” value in the data set with rat sleep/EEG is reported as “dose-related increase in arousal”.
